From patent publication US20200123208A1, “PEPTIDES AND NEMATICIDAL COMPOSITIONS” (priority 2017, published 2020) come the findings set out here.

Format in all cases: in vivo
Experiment [1] relates to Steinernema carpocapsae infective juveniles. Description: S. carpocapsae host-finding assay (non-target nematode). To be noted: S. carpocapsae IJs, 100 μM, 24 h; no statistically significant impact; control 0.2315. As to the method:
S. carpocapsae were cultured in Galleria mellonella at 23° C. Infective juveniles (IJs) were collected using a White trap in PBS. Freshly emerged IJs were used for each assay. 100 IJs were incubated for 24 hours in 100 μM of selected uNLPs, and host-finding assays performed as in Morris et al..

For experiment [2], the system named is Meloidogyne incognita J2s. Description: Tomato invasion assay, M. incognita J2s. Here is the method: (§1) Predicted uNLPs from both M. incognita and G. pallida were synthesised by EZBiolab and dissolved into pH adjusted ddH2O to make a 5 mM stock which was aliquoted and stored at −20° C. J2s of both M. incognita and G. pallida were incubated for 24 hours in 200 μl of each peptide in a 24 well plate (SPL Lifesciences, South Korea) at a defined concentration.
Tomato seeds were sterilised with 2.5% NaOCl for 15 minutes, washed 5 times in ddH2O and germinated on 0.5% Murashige and Skoog plates at 23° C. […] Invasion assays were performed by mixing 500 pre-treated M. incognita or G. pallida J2s with agar slurry and a single tomato seedling (2 days post germination) in a 6 well plate. Assays were left at 23° C. for 24 hours in the case of M. incognita and at 18° C. for 24 hours in the case of G. pallida under a 16 hour light and 8 hour darkness cycle. Seedlings were stained using acid fuschin [69] and the number of nematodes within the roots counted.

The test system of experiment [3] is mixed-stage Caenorhabditis elegans. Description: C. elegans chemotaxis assay (non-target nematode). The settings on record: 100 μM, 24 h, no statistically significant impact. As to the method:
C. elegans wild-type N2 Bristol strain were obtained from the C. elegans Genomics Center and maintained on a Escherichia coli (strain OP50) lawn on nematode growth medium (NGM) agar plates (3 g/l NaCl, 17 g/l agar, 2.5 g/l peptone, 5 mg/l cholesterol, 25 mM KH2PO4 (pH 6.0), 1 mM CaCl2, 1 mM MgSO4) at 20° C.. Chemotaxis assays were performed in a 9 cm diameter Petri dish on NGM agar which was split into a positive and negative side with a central ‘dead zone’ of 1.5 cm diameter. 100 mixed-staged C. elegans were washed three times in M9 buffer and soaked in 100 μM PPN uNLP, or M9 vehicle control for 24 hours. 2 μl of 50 mM sodium acetate, 0.5% pyrazine, 0.5% benzaldehyde or 0.5% diacetyl was spotted onto the positive side, 2 μl of ddH2O was spotted onto the negative side. Pyrazine, benzaldehyde and diacetyl volatile attractants were assayed immediately whereas the water soluble sodium acetate was assayed 18 hours following addition to the plate. Assays were maintained in the dark at 20° C., and counted after 1 hour.

Experiment [4] relates to Meloidogyne incognita J2s. Description: Serotonin-induced stylet thrusting assay, M. incognita J2s. The settings on record: 100 μM uNLP, 24 h, 5 mM serotonin. Here is the method:
as §1
Stylet thrusting assays where performed by incubating 100 M. incognita or G. pallida J2s for 15 minute in 5 mM or 2 mM serotonin (Sigma Aldrich, USA), respectively. J2s were placed on a glass slide and stylet thrusts were counted for randomly selected J2s, for 1 minute each. Counting took place for a maximum of 15 minutes. Longer incubations yielded inconsistent results. At least 30 J2s were counted for each neuropeptide treatment.

Experiment [5] has as its system Meloidogyne incognita infective stage juveniles (J2s). Description: Chemosensory (chemotaxis) assay towards root exudate, M. incognita J2s. To be noted: for chemotaxis index (Cl) towards root exudate: M. incognita J2s. Here is the method:
as §1
(§2) A 60 mm Petri dish was divided into two segments, a positive and a negative side, with a 0.5 cm ‘dead zone’ either side of the centre point. The petri dish was filled with 15 ml of 0.25% w/v agar which was allowed to solidify. 3 ml of 0.25% w/v agar slurry in spring water (pH 7, agitated with a magnetic stirrer for several hours to give a smooth consistency) was added to the petri dish and spread evenly over the surface. Root diffusate (attractant) and water only (control) 0.25% agar plugs were embedded in the agar slurry, either side of the assay arena. Root diffusate was collected from 10 tomato plants, aged 3-6 weeks in 1 litre pots, by pouring 500 ml of ddH2O through the soil three times. Diffusate from each plant was combined, filter sterilised and stored at 4° C. for a maximum of 1 month. Root diffusate agar plugs were made by melting 1.25% agar in ddH2O, cooling to 50° C. before mixing with 4 parts of root diffusate. The agar was then allowed to solidify at room temperature. 100 uNLP pre-treated M. incognita or G. pallida J2s were added by pipette to the centre of the plate. J2s which moved out of the ‘dead zone’ after 3 hours were counted and their location (+/−) scored. The distribution of J2s were used to create a chemotaxis index for each plate, which formed one replicate, a total of 10 replicates where completed for each uNLP treatment.

The subject of experiment [6] is Globodera pallida infective stage juveniles (J2s). Description: Chemosensory (chemotaxis) assay towards root exudate, G. pallida J2s. The settings on record: 100 μM uNLP, 24 h, mean+/-SEM. As to the method: as §1, §2
[7] abbreviates: Mi-NLP-15b 100 μM, 24 h (dilution series).

On to SFDSFTGPGFTGLD [Mi-NLP-15b], for which the “insect host-finding index (Cl) towards Galleria mellonella” value in experiment [1] is reported as 0.2225+/−0.043. For the same sequence, in experiment [2] (100 μM uNLP, 24 h, tomato seedlings, normalised to negative control), the “host invasion compared to controls” value is 32.22%+/−8.122. Further, the “J2 invasion relative to control” value in experiment [2] (Mi-NLP-15b 100 nM, 24 h) is listed as 69.9%+/−10.66; in experiment [2] (Mi-NLP-15b 1 μM, 24 h), 59.05%+/−8.545; in experiment [2] (Mi-NLP-15b 10 μM, 24 h), 54.62%+/−8.362; in experiment [2] (setting [7]), 35.06%+/−6.407. In addition, in experiment [3] (control 0.4269), the “chemotaxis index (Cl) towards sodium acetate” value is on record as 0.3142+/−0.039. Also, the “chemotaxis index (Cl) towards pyrazine” value in experiment [3] (control 0.4904) was 0.4959+/−0.089. For the same sequence, in experiment [3] (control 0.6638), the “chemotaxis index (Cl) towards diacetyl” value was 0.6640+/−0.126. For the same sequence, in experiment [3] (control 0.7026), the “chemotaxis index (Cl) towards benzaldehyde” value was 0.7032+/−0.075. Besides, the “rate of serotonergic-induced stylet thrusting compared with controls” value in experiment [4] stood at 129.9%+/−10.59. For the same sequence, the “chemotaxis index (Cl) towards root exudate” value in experiment [5] (100 μM uNLP, 24 h, mean+/-SEM) is −0.3408+/−0.2207; in experiment [5] (Mi-NLP-15b 100 pM, 24 h) it was 0.03117+/−0.1594; in experiment [5] (Mi-NLP-15b 1 nM, 24 h), −0.07105+/−0.1534; in experiment [5] (Mi-NLP-15b 10 nM, 24 h), −0.1741+/−0.1724; in experiment [5] (Mi-NLP-15b 100 nM, 24 h), −0.1195+/−0.1968; in experiment [5] (Mi-NLP-15b 1 μM, 24 h) it was −0.1344+/−0.1733. Moreover, the “chemotaxis index (Cl) towards root exudate” value in experiment [5] (Mi-NLP-15b 10 μM as printed (last of the series, after 100 pM), 24 h) is on record as −0.1553+/−0.2642; in experiment [5] (Mi-NLP-15b 10 μM, 24 h (dilution series)) it was −0.03579+/−0.1504; in experiment [5] (setting [7]), −0.3782+/−0.07224; in experiment [6], −0.04762+/−0.1983. In experiment [5] (serial dilution, 24 h exposure), the “lowest concentration inhibiting M. incognita chemosensation” value is recorded as 10 pM.
